Source: article PMC12916285 (Molecular Psychiatry, 2025)

System: Bdnf, Arc, Egr-1, Egr-2, Egr-3 mRNA in mouse PFC, HIP, mPFC
Assay: In vivo gene expression
Settings: PFC and HIP, 30 min after 10 mg/kg i.p.

For `CN(C)CCc1c[nH]c2ccccc12` [DMT, dimethyltryptamine], the “Expression of Egr-2 mRNA” value was “significantly elevated expression”.
